± gives the expanded uncertainty stated by the source.
Experiments:
[1] = xn = mol fraction of the nth substance listed; details: 101 kPa, Liquid, Vibrating tube method
[2] = refractive index (Na D-line) (dimensionless); xn = mol fraction of the nth substance listed; details: 101 kPa, Liquid, Standard Abbe refractometry

C1CCC(NC2CCCCC2)CC1 [N-cyclohexylcyclohexanamine] + CCCO
Details | mass density, [1] [kg/m3] | refractive index, [2]
288.15 K, x2 = 0 | 915.498 ± 0.23 | 1.48636 ± 0.0004
288.15 K, x2 = 0.0527 | 914.71 ± 0.23 | 1.48522 ± 0.0004
288.15 K, x2 = 0.1009 | 913.805 ± 0.22 | 1.48396 ± 0.0004
288.15 K, x2 = 0.2004 | 911.438 ± 0.2 | 1.48074 ± 0.00039
288.15 K, x2 = 0.3002 | 908.197 ± 0.19 | 1.47672 ± 0.00039
288.15 K, x2 = 0.4003 | 903.914 ± 0.18 | 1.47182 ± 0.00038
288.15 K, x2 = 0.5005 | 898.063 ± 0.17 | 1.46554 ± 0.00038
288.15 K, x2 = 0.6 | 889.96 ± 0.16 | 1.45743 ± 0.00037
288.15 K, x2 = 0.6998 | 878.617 ± 0.15 | 1.44689 ± 0.00037
288.15 K, x2 = 0.8 | 862.501 ± 0.14 | 1.4327 ± 0.00037
288.15 K, x2 = 0.8999 | 839.78 ± 0.15 | 1.41365 ± 0.00037
288.15 K, x2 = 0.9491 | 825.362 ± 0.15 | 1.40206 ± 0.00037
293.15 K, x2 = 0 | 911.705 ± 0.23 | 1.48416 ± 0.0004
293.15 K, x2 = 0.0527 | 910.893 ± 0.23 | 1.48299 ± 0.0004
293.15 K, x2 = 0.1009 | 909.957 ± 0.22 | 1.48175 ± 0.0004
293.15 K, x2 = 0.2004 | 907.522 ± 0.2 | 1.47851 ± 0.00039
293.15 K, x2 = 0.3002 | 904.203 ± 0.19 | 1.47445 ± 0.00039
293.15 K, x2 = 0.4003 | 899.835 ± 0.18 | 1.4695 ± 0.00038
293.15 K, x2 = 0.5005 | 893.905 ± 0.17 | 1.4632 ± 0.00038
293.15 K, x2 = 0.6 | 885.737 ± 0.16 | 1.45509 ± 0.00038
293.15 K, x2 = 0.6998 | 874.377 ± 0.15 | 1.44458 ± 0.00037
293.15 K, x2 = 0.8 | 858.315 ± 0.15 | 1.43047 ± 0.00037
293.15 K, x2 = 0.8999 | 835.696 ± 0.15 | 1.41145 ± 0.00037
293.15 K, x2 = 0.9491 | 821.334 ± 0.16 | 1.39989 ± 0.00037
298.15 K, x2 = 0 | 907.923 ± 0.23 | 1.48198 ± 0.0004
298.15 K, x2 = 0.0527 | 907.079 ± 0.23 | 1.48079 ± 0.0004
298.15 K, x2 = 0.1009 | 906.116 ± 0.22 | 1.47952 ± 0.0004
298.15 K, x2 = 0.2004 | 903.612 ± 0.2 | 1.47626 ± 0.00039
298.15 K, x2 = 0.3002 | 900.208 ± 0.19 | 1.47217 ± 0.00039
298.15 K, x2 = 0.4003 | 895.758 ± 0.18 | 1.46722 ± 0.00038
298.15 K, x2 = 0.5005 | 889.747 ± 0.17 | 1.46088 ± 0.00038
298.15 K, x2 = 0.6 | 881.518 ± 0.16 | 1.45273 ± 0.00038
298.15 K, x2 = 0.6998 | 870.137 ± 0.16 | 1.44226 ± 0.00037
298.15 K, x2 = 0.8 | 854.115 ± 0.15 | 1.4282 ± 0.00037
298.15 K, x2 = 0.8999 | 831.592 ± 0.15 | 1.40927 ± 0.00037
298.15 K, x2 = 0.9491 | 817.281 ± 0.16 | 1.3977 ± 0.00037
303.15 K, x2 = 0 | 904.144 ± 0.23 | 1.47978 ± 0.0004
303.15 K, x2 = 0.0527 | 903.271 ± 0.23 | 1.47861 ± 0.0004
303.15 K, x2 = 0.1009 | 902.276 ± 0.22 | 1.47729 ± 0.0004
303.15 K, x2 = 0.2004 | 899.7 ± 0.2 | 1.47402 ± 0.00039
303.15 K, x2 = 0.3002 | 896.218 ± 0.19 | 1.4699 ± 0.00039
303.15 K, x2 = 0.4003 | 891.683 ± 0.18 | 1.46491 ± 0.00038
303.15 K, x2 = 0.5005 | 885.59 ± 0.17 | 1.45856 ± 0.00038
303.15 K, x2 = 0.6 | 877.299 ± 0.16 | 1.4504 ± 0.00038
303.15 K, x2 = 0.6998 | 865.887 ± 0.16 | 1.43992 ± 0.00037
303.15 K, x2 = 0.8 | 849.899 ± 0.15 | 1.42592 ± 0.00037
303.15 K, x2 = 0.8999 | 827.461 ± 0.15 | 1.40709 ± 0.00037
303.15 K, x2 = 0.9491 | 813.202 ± 0.16 | 1.39547 ± 0.00037
308.15 K, x2 = 0 | 900.372 ± 0.23 | 1.47761 ± 0.0004
308.15 K, x2 = 0.0527 | 899.466 ± 0.23 | 1.47642 ± 0.0004
308.15 K, x2 = 0.1009 | 898.437 ± 0.22 | 1.47508 ± 0.0004
308.15 K, x2 = 0.2004 | 895.78 ± 0.2 | 1.47179 ± 0.00039
308.15 K, x2 = 0.3002 | 892.225 ± 0.19 | 1.46765 ± 0.00039
308.15 K, x2 = 0.4003 | 887.605 ± 0.18 | 1.46262 ± 0.00038
308.15 K, x2 = 0.5005 | 881.429 ± 0.17 | 1.45625 ± 0.00038
308.15 K, x2 = 0.6 | 873.074 ± 0.16 | 1.44805 ± 0.00038
308.15 K, x2 = 0.6998 | 861.626 ± 0.16 | 1.43759 ± 0.00037
308.15 K, x2 = 0.8 | 845.662 ± 0.16 | 1.42358 ± 0.00037
308.15 K, x2 = 0.8999 | 823.3 ± 0.16 | 1.40482 ± 0.00037
308.15 K, x2 = 0.9491 | 809.088 ± 0.16 | 1.39323 ± 0.00037
313.15 K, x2 = 0 | 896.608 ± 0.23 | 1.47562 ± 0.0004
313.15 K, x2 = 0.0527 | 895.664 ± 0.23 | 1.4743 ± 0.0004
313.15 K, x2 = 0.1009 | 894.6 ± 0.22 | 1.47287 ± 0.0004
313.15 K, x2 = 0.2004 | 891.876 ± 0.21 | 1.4695 ± 0.00039
313.15 K, x2 = 0.3002 | 888.227 ± 0.19 | 1.46533 ± 0.00039
313.15 K, x2 = 0.4003 | 883.521 ± 0.18 | 1.46024 ± 0.00038
313.15 K, x2 = 0.5005 | 877.263 ± 0.17 | 1.45383 ± 0.00038
313.15 K, x2 = 0.6 | 868.843 ± 0.16 | 1.44565 ± 0.00038
313.15 K, x2 = 0.6998 | 857.35 ± 0.16 | 1.43509 ± 0.00037
313.15 K, x2 = 0.8 | 841.4 ± 0.16 | 1.42112 ± 0.00037
313.15 K, x2 = 0.8999 | 819.106 ± 0.16 | 1.40242 ± 0.00037
313.15 K, x2 = 0.9491 | 804.934 ± 0.16 | 1.39093 ± 0.00037
318.15 K, x2 = 0 | 892.847 ± 0.23 | 1.47347 ± 0.0004
318.15 K, x2 = 0.0527 | 891.862 ± 0.23 | 1.47211 ± 0.0004
318.15 K, x2 = 0.1009 | 890.759 ± 0.22 | 1.47068 ± 0.0004
318.15 K, x2 = 0.2004 | 887.957 ± 0.21 | 1.4673 ± 0.00039
318.15 K, x2 = 0.3002 | 884.225 ± 0.19 | 1.46306 ± 0.00039
318.15 K, x2 = 0.4003 | 879.43 ± 0.18 | 1.45795 ± 0.00038
318.15 K, x2 = 0.5005 | 873.086 ± 0.17 | 1.45151 ± 0.00038
318.15 K, x2 = 0.6 | 864.613 ± 0.17 | 1.44331 ± 0.00038
318.15 K, x2 = 0.6998 | 853.054 ± 0.16 | 1.43279 ± 0.00037
318.15 K, x2 = 0.8 | 837.107 ± 0.16 | 1.41883 ± 0.00037
318.15 K, x2 = 0.8999 | 814.869 ± 0.16 | 1.40021 ± 0.00037
318.15 K, x2 = 0.9491 | 800.736 ± 0.17 | 1.38876 ± 0.00037
323.15 K, x2 = 0 | 889.089 ± 0.23 | 1.47134 ± 0.0004
323.15 K, x2 = 0.0527 | 888.061 ± 0.23 | 1.46997 ± 0.0004
323.15 K, x2 = 0.1009 | 886.919 ± 0.22 | 1.46853 ± 0.0004
323.15 K, x2 = 0.2004 | 884.032 ± 0.21 | 1.4651 ± 0.00039
323.15 K, x2 = 0.3002 | 880.209 ± 0.2 | 1.46087 ± 0.00039
323.15 K, x2 = 0.4003 | 875.326 ± 0.18 | 1.4557 ± 0.00038
323.15 K, x2 = 0.5005 | 868.893 ± 0.18 | 1.4492 ± 0.00038
323.15 K, x2 = 0.6 | 860.363 ± 0.17 | 1.44112 ± 0.00038
323.15 K, x2 = 0.6998 | 848.736 ± 0.17 | 1.43046 ± 0.00037
323.15 K, x2 = 0.8 | 832.782 ± 0.17 | 1.41649 ± 0.00037
323.15 K, x2 = 0.8999 | 810.587 ± 0.17 | 1.39788 ± 0.00037
323.15 K, x2 = 0.9491 | 796.489 ± 0.17 | 1.38638 ± 0.00037
